# Source: patent US9926292B2, “Pyridinyl derivatives, pharmaceutical compositions and uses thereof” (Boehringer Ingelheim International GmbH, priority 2016, dated 2018)
# Where two headings read alike, the source gives them in different places.
# Tests used:
# AOC1 = target: T1, AOC1 (Homo sapiens, UniProt P19801); experiment: AOC1 biochemical assay (Amplex Red)
# T1 construct: purchased R&D Systems 8297-AO-010
# T1 sequence (P19801 20-751): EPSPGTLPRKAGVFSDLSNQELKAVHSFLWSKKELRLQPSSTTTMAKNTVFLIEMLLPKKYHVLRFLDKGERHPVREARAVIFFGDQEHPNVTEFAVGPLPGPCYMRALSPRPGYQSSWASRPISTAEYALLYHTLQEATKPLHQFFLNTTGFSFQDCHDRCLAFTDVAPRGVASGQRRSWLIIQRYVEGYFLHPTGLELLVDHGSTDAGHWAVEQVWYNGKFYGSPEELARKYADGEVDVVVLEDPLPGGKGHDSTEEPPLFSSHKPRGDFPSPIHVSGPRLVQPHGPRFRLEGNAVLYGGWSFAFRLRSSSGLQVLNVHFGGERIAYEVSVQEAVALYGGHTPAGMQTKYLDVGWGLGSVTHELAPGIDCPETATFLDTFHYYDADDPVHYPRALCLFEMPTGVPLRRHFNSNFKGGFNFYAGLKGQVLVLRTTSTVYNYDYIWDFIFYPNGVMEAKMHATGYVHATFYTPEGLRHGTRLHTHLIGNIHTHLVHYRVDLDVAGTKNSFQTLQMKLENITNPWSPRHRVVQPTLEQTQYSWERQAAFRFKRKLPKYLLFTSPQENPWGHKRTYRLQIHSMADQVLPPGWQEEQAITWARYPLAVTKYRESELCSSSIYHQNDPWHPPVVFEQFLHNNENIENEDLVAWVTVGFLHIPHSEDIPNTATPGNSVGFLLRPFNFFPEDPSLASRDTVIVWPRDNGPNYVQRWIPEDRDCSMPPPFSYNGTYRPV
# Excerpt: The Amplex® Red Assay (available from Thermo Fisher Scientific) provides a sensitive method for the detection of H2O2 generated during enzymatic reactions like the amine oxidation catalyzed by AOC1.
# AOC3 = target: T2, AOC3 (Homo sapiens, UniProt Q16853); experiment: AOC3 biochemical assay (MAO-Glo)
# T2 construct: expressed in transfected cells; host or cells: CHO cells
# T2 sequence (Q16853 1-763): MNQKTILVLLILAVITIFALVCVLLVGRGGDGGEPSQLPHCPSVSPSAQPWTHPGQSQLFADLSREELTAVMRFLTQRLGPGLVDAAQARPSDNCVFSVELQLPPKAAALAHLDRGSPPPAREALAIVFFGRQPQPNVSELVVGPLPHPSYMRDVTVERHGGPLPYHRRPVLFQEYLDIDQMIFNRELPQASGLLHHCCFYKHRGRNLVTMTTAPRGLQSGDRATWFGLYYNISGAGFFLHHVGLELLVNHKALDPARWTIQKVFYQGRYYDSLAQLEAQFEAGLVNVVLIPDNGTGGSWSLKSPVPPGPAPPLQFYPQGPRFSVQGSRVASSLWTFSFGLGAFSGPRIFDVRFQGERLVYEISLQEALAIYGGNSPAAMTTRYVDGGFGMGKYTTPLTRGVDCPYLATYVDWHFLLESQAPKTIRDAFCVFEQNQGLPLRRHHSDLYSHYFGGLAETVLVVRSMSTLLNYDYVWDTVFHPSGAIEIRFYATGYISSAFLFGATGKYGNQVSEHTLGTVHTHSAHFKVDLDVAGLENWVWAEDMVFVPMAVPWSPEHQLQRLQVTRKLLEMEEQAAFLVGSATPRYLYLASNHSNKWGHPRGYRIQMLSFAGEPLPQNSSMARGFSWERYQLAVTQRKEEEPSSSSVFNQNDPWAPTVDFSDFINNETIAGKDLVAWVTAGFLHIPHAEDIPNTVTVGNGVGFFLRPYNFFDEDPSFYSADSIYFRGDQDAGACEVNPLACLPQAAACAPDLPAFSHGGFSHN
# Protocol: As substrate a derivate of the beetle luciferin ((4S)-4,5-dihydro-2-(6-hydroxybenzothiazolyl)-4-thiazole-carboxylic acid) is used, which is oxidized at a primary amine moiety. After a spontaneous elimination and a catalyzed esterase reaction, the turnover of the luciferine by the luciferase is recorded as a signal of AOC3 activity.
# Recombinant CHO cells, overexpressing the human (1500 cells/well), mouse (1000 cells/well) or rat (500 cells/well) AOC3 enzyme are diluted in reaction buffer and added in a volume of 15 μL to the wells. After incubation for 20 minutes at 37° C., 2 μL of MAO substrate (dissolved in DMSO at 16 mM, adjusted to assay concentration in reaction buffer to a final assay concentration of 20 μM) is added and further incubated for 60 minutes at 37° C. The turnover of the substrate is determined by the addition of 20 μL of the detection-mix which was generated by the addition of reconstitution buffer with esterase (PROMEGA, #V1402) to the luciferine detection reagent (PROMEGA, #V1402).
# [1] = Table 2, comparison with compounds of EP 2 695 881, read-out: IC50 AOC1
# [2] = Table 2, comparison with compounds of EP 2 695 881, read-out: IC50 AOC3
SMILES,IC50 (AOC1; [1]) [nM],IC50 (AOC3; [2]) [nM],"IC50 (AOC1; Table 1, read-out: AOC1 IC50) [nM]","IC50 (AOC3; Table 1, read-out: AOC3 IC50) [nM]",melting point [°C]
"CC(=O)N1CCC(COc2ncc(-c3cccc(COC(=O)NC(=N)N)c3F)cn2)CC1 [Ex. 11, p. 221, reference compound]",6,1,,,
N=C(N)NC(=O)OCc1cccc(-c2cnc(OCC3CCN(C(=O)C4CC4)CC3)nc2)n1 [Example 38],,,322,3,
"COC1CN(c2ncc(-c3cccc(COC(=O)NC(=N)N)c3F)cn2)C1 [Ex. 63, p. 227, reference compound]",100,1,,,
N=C(N)NC(=O)OCc1cccc(-c2cnc(OCc3cnns3)nc2)n1 [Example 34],,,503,2,
COC1CN(c2ncc(-c3cccc(COC(=O)NC(=N)N)n3)cn2)C1 [Example 13],,,1480,2,
COCCNc1ncc(-c2cccc(COC(=O)NC(=N)N)n2)cn1 [Example 09],,,1410,7,
"N=C(N)NC(=O)OCc1cccc(-c2cnc(C3CC3)nc2)n1 [Example 03, [6-(2-cyclopropylpyrimidin-5-yl)-2-pyridyl]methyl N-carbamimidoylcarbamate]",,,8030,8,
"N=C(N)NC(=O)OCc1cccc(-c2cnc(OC[C@H]3CC3(F)F)nc2)n1 [Example 26, [6-[2-[[(1R)-2,2-difluorocyclopropyl]methoxy]pyrimidin-5-yl]-2-pyridyl]methyl N-carbamimidoylcarbamate]",,,2520,3,193 to 196
N=C(N)NC(=O)OCc1cccc(-c2cnc(C3CCOCC3)nc2)n1 [Example 12],,,7530,5,
N=C(N)NC(=O)OCc1cccc(-c2cnc(OCC3CCOCC3)nc2)n1 [Example 33],,,899,3,
N=C(N)NC(=O)OCc1cccc(-c2cnc(O[C@H]3CCOC3)nc2)n1 [Example 15],,,5190,8,
N=C(N)NC(=O)OCc1cccc(-c2cnc(OCc3nccs3)nc2)n1 [Example 31],,,612,3,
"N=C(N)NC(=O)OCc1cccc(-c2cnc(OCCCC(F)(F)F)nc2)n1 [Example 36, [6-[2-(4,4,4-trifluorobutoxy)pyrimidin-5-yl]-2-pyridyl]methyl N-carbamimidoylcarbamate]",,,1150,5,194 to 197
N=C(N)NC(=O)OCc1cccc(-c2cnc(OCc3cscn3)nc2)n1 [Example 30],,,978,3,
"CCOc1ncc(-c2cccc(COC(=O)NC(=N)N)c2F)cn1 [Ex. 136, p. 235, reference compound]",60,6,,,
COCCN(C)c1ncc(-c2cccc(COC(=O)NC(=N)N)n2)cn1 [Example 16],,,718,9,
CC(F)(F)CNc1ncc(-c2cccc(COC(=O)NC(=N)N)n2)cn1 [Example 19],,,,9,
N=C(N)NC(=O)OCc1cccc(-c2cnc(N3CCOCC3)nc2)n1 [Example 14],,,1340,3,
COCCOc1ncc(-c2cccc(COC(=O)NC(=N)N)n2)cn1 [Example 10],,,3480,11,
"N=C(N)NC(=O)OCc1cccc(-c2cnc(OCC3(F)CC3)nc2)n1 [Example 17, [6-[2-[(1-fluorocyclopropyl)methoxy]pyrimidin-5-yl]-2-pyridyl]-methyl N-carbamimidoylcarbamate]",,,3620,5,
"CCCOc1ncc(-c2cccc(COC(=O)NC(=N)N)n2)cn1 [Example 07, [6-(2-propoxypyrimidin-5-yl)-2-pyridyl]methyl N-carbamimidoylcarbamate]",,,2010,5,

SMILES,IC50 (AOC1; [1]) [nM],IC50 (AOC3; [2]) [nM],"IC50 (AOC1; Table 1, read-out: AOC1 IC50) [nM]","IC50 (AOC3; Table 1, read-out: AOC3 IC50) [nM]",melting point [°C]
CN(c1ncc(-c2cccc(COC(=O)NC(=N)N)n2)cn1)C1CCOC1 (centres unmarked) [Example 25],,,483,3,
CC(Oc1ncc(-c2cccc(COC(=O)NC(=N)N)n2)cn1)c1ccon1 (centres unmarked) [Example 28],,,3290,15,
CC(F)(F)COc1ccc(-c2cccc(COC(=O)NC(=N)N)n2)cn1 [Example 18],,,1400,3,
COc1ncc(-c2cccc(COC(=O)NC(=N)N)n2)cn1 [Example 02],,,8070,10,
Cc1ncc(-c2cccc(COC(=O)NC(=N)N)n2)cn1 [Example 01],,,7600,27,
CN(c1ncc(-c2cccc(COC(=O)NC(=N)N)n2)cn1)C1CCOCC1 [Example 32],,,710,2,
N=C(N)NC(=O)OCc1cccc(-c2ccc(OCc3ccon3)nc2)n1 [Example 23],,,3820,2,
N=C(N)NC(=O)OCc1cccc(-c2cnc(OCc3csnn3)nc2)n1 [Example 35],,,1020,3,
CCOc1ncc(-c2cccc(COC(=O)NC(=N)N)n2)cn1 [Example 05],,,2390,15,
C[C@@H](F)COc1ncc(-c2cccc(COC(=O)NC(=N)N)n2)cn1 [Example 11],,,2390,5,
"C#CCCOc1ncc(-c2cccc(COC(=O)NC(=N)N)n2)cn1 [Example 08, [6-(2-but-3-ynoxypyrimidin-5-yl)-2-pyridyl]methyl N-carbamimidoylcarbamate]",,,2690,4,
N#CC1(COc2ncc(-c3cccc(COC(=O)NC(=N)N)n3)cn2)CCC1 [Example 27],,,3770,4,
N#CC1(COc2ncc(-c3cccc(COC(=O)NC(=N)N)n3)cn2)CC1 [Example 21],,,3190,4,
CN(C)c1ncc(-c2cccc(COC(=O)NC(=N)N)n2)cn1 [Example 04],,,1720,5,
"N=C(N)NC(=O)OCc1cccc(-c2cnc(N3CCOCC3)nc2)c1F [Ex. 81, p. 229, reference compound]",174,1,,,
"COCCOc1ncc(-c2cccc(COC(=O)NC(=N)N)c2F)cn1 [Ex. 197, p. 243, reference compound]",97,6,,,
CC(=O)N1CCC(COc2ncc(-c3cccc(COC(=O)NC(=N)N)n3)cn2)CC1 [Example 37],,,227,3,
N=C(N)NC(=O)OCc1cccc(-c2cnc(OCc3cncs3)nc2)n1 [Example 29],,,659,2,
"N=C(N)NC(=O)OCc1cccc(-c2cnc(OCC3CCN(C(=O)C4CC4)CC3)nc2)c1F [Ex. 74, p. 229, reference compound]",8,1,,,
CSc1ncc(-c2cccc(COC(=O)NC(=N)N)n2)cn1 [Example 06],,,10200,15,
